The record followed here is ChEMBL document CHEMBL5126585, “Synthesis and evaluation of 1,2,3-dithiazole inhibitors of the nucleocapsid protein of feline immunodeficiency virus (FIV) as a model for HIV infection” (Bioorg Med Chem, 2022).

As usually defined, the CC50 is the concentration at which the toxic effect on the cells reaches its halfway point. What is called EC50 is the concentration giving half of the maximal effect.

The nature of data set [1]: Cytotoxicity against CRFK cells assessed as reduction in cell viability incubated for 24 hrs by MTT assay. Particulars: cat. It counts as toxicity, cell-based, Felis catus.
Data set [2] is described as follows: Cytotoxicity against FEA cells assessed as reduction in cell viability incubated for 24 hrs by MTT assay. It counts as toxicity, cell-based, Felis catus. Particulars: cat.
The test system of data set [3] is Feline immunodeficiency virus. Nature of the data set: Antiviral activity against Feline immunodeficiency virus infected in IL2 independent FL-4 cells assessed as reduction in viral replication treated for 7 days with daily replacement by qRT-PCR analysis. In kind it is functional, organism-based. The following applies: FL-4, 168 h. Background: Real-time PCR tracks product formation cycle by cycle.

The nature of data set [4]: Therapeutic index, ratio of CC50 for cytotoxicity against IL2 independent FL-4 cells to EC50 for antiviral activity against Feline immunodeficiency virus infected in IL2 independent FL-4 cells. In kind it is toxicity, cell-based. Particulars: cat; read-out: Ratio CC50/EC50.
Data set [5] can be described thus: Cytotoxicity against IL2 independent FL-4 cells assessed as reduction in cell viability measured after 7 days by MTT assay. It counts as toxicity, cell-based, Felis catus. Particulars: cat, time 7 day.

`Clc1nss/c1=N\c1ccccn1`: the CC50 at 24 h in data set [1] is 29 µM; in data set [2], 4.6 µM. Besides, in data set [3], the EC50 was determined as 0.38 µM. In data set [4], the selectivity ratio stood at 105. In data set [5], the CC50 at 168 h was determined as 40 µM.

Turning to `Clc1nss/c1=N\c1ccc(Br)cc1`, the CC50 at 24 h is more than 100 µM in data set [1] and 40 µM in data set [2]. Besides, the EC50 in data set [3] is 0.64 µM. In addition, the selectivity ratio in data set [4] was more than 160. For the same compound, the CC50 at 168 h in data set [5] is more than 100 µM.

For the compound `Clc1nss/c1=N\c1nccs1`, the CC50 at 24 h in data set [1] amounted to 7.6 µM; in data set [2], 8.4 µM. The EC50 in data set [3] was 3 µM. Moreover, the selectivity ratio in data set [4] is 1.6. Besides, the CC50 at 168 h in data set [5] was determined as 4.7 µM.

`Clc1nss/c1=N\c1ccccc1Br`: the CC50 at 24 h in data set [1] and in data set [2] was more than 100 µM in each case. In data set [3], the EC50 worked out at 12 µM. In addition, the selectivity ratio in data set [4] turned out to be 3.3. Further, the CC50 at 168 h in data set [5] was 39 µM.

Consider `Clc1ccc(/N=c2\ssnc2Cl)cc1`, for which the CC50 at 24 h was more than 100 µM in data set [1] and 51 µM in data set [2]. The EC50 in data set [3] was 0.57 µM. In addition, the selectivity ratio in data set [4] was found to be 79. Moreover, in data set [5], the CC50 at 168 h is 45 µM.

As to `N#Cc1ccc(/N=c2\ssnc2Cl)cc1`, the CC50 at 24 h in data set [1] amounted to 31 µM; in data set [2], 50 µM. The EC50 in data set [3] was determined as 0.62 µM. Also, in data set [4], the selectivity ratio is more than 160. The CC50 at 168 h in data set [5] is more than 100 µM.

Take `Cc1cc(/N=c2\ssnc2Cl)n[nH]1`: the CC50 at 24 h in data set [1] is more than 100 µM; in data set [2] it was 55 µM. For the same compound, the EC50 in data set [3] is 0.083 µM. For the same compound, the selectivity ratio in data set [4] was found to be 600. Besides, the CC50 at 168 h in data set [5] is 50 µM.

As to `O=[N+]([O-])c1ccc(/N=c2\ssnc2Cl)cc1`, the CC50 at 24 h in data set [1] came out at 31 µM; in data set [2] it was 50 µM. Besides, in data set [3], the EC50 was 0.29 µM. Besides, the selectivity ratio in data set [4] was 170. Besides, the CC50 at 168 h in data set [5] was found to be 49 µM.

Take `Fc1ccc(/N=c2\ssnc2Cl)cc1`: the CC50 at 24 h in data set [1] and in data set [2] was more than 100 µM in each case. Moreover, in data set [3], the EC50 was determined as 0.98 µM. For the same compound, in data set [4], the selectivity ratio is more than 100. Moreover, the CC50 at 168 h in data set [5] was more than 100 µM.

With `FC(F)(F)c1ccc(/N=c2\ssnc2Cl)cc1`, the half-maximal cytotoxic concentration (CC50) at 24 h in data set [1] and in data set [2] was more than 100 µM throughout. Besides, the concentration for a half-maximal effect (EC50) in data set [3] was 15 µM. Besides, in data set [4], the selectivity ratio is more than 6.7. For the same compound, the CC50 at 168 h in data set [5] was more than 100 µM.

With `Clc1nss/c1=N\c1cccc(Br)c1`, the CC50 at 24 h in data set [1] and in data set [2] was more than 100 µM each time. The EC50 in data set [3] was more than 100 µM. In data set [5], the CC50 at 168 h is more than 100 µM.

Turning to `CSc1ccc(/N=c2\ssnc2Cl)cc1`, the results for the CC50 at 24 h in data set [1] and in data set [2] were 43 µM and 53 µM, respectively. Besides, the EC50 in data set [3] was 21 µM. In addition, the selectivity ratio in data set [4] was 2.4. The CC50 at 168 h in data set [5] was determined as 51 µM.

On to `Cc1cc(OC(F)(F)F)ccc1/N=c1\ssnc1Cl`, for which the CC50 at 24 h in data set [1] and in data set [2] was more than 100 µM in each case. In addition, the EC50 in data set [3] is more than 100 µM. Besides, in data set [5], the CC50 at 168 h was more than 100 µM.

With `Clc1nss/c1=N\c1cc(-c2ccccc2)n[nH]1`, the CC50 at 24 h in data set [1] was found to be 18 µM; in data set [2], 31 µM. Also, the EC50 in data set [3] stood at 0.53 µM. For the same compound, the selectivity ratio in data set [4] worked out at 9.2. In data set [5], the CC50 at 168 h was found to be 4.9 µM.

As for `Cc1cc(/N=c2\ssnc2Cl)n(Cc2ccccc2)n1`, the CC50 at 24 h in data set [1] worked out at 33 µM; in data set [2], 30 µM. Besides, the EC50 in data set [3] came to 22 µM. The selectivity ratio in data set [4] came to 2.4. Moreover, the CC50 at 168 h in data set [5] is 52 µM.

`Clc1nss/c1=N\c1ccc(Oc2ccccc2)cc1`: the CC50 at 24 h in data set [1] and in data set [2] was more than 100 µM in each case. The EC50 in data set [3] was determined as 35 µM. In data set [4], the selectivity ratio was more than 2.9. Further, the CC50 at 168 h in data set [5] is more than 100 µM.

As to `Clc1nss/c1=N\c1ccc2c(c1)OCO2`, the CC50 at 24 h in data set [1] was 44 µM; in data set [2], 53 µM. Besides, in data set [3], the EC50 worked out at 20 µM. For the same compound, the selectivity ratio in data set [4] turned out to be 2.5. Further, the CC50 at 168 h in data set [5] was determined as 49 µM.

Regarding `Clc1nss/c1=N\c1ccc(OCc2ccccc2)cc1`, the CC50 at 24 h in data set [1] is more than 100 µM; in data set [2], 74 µM. Also, in data set [3], the EC50 came to 23 µM. The selectivity ratio in data set [4] was found to be 1.9. Also, the CC50 at 168 h in data set [5] came out at 44 µM.

As for `CCCCOc1ccc(/N=c2\ssnc2Cl)cc1`, the CC50 at 24 h in data set [1] and in data set [2] was more than 100 µM throughout. Moreover, the EC50 in data set [3] was 26 µM. For the same compound, the selectivity ratio in data set [4] was more than 3.8. In addition, the CC50 at 168 h in data set [5] is more than 100 µM.

As for `N#Cc1c(Br)cccc1/N=c1\ssnc1Cl`, the values for the CC50 at 24 h in data set [1] and in data set [2] were 38 µM and 41 µM, respectively. Besides, the EC50 in data set [3] stood at 15 µM. The selectivity ratio in data set [4] was determined as 3.5. In addition, in data set [5], the CC50 at 168 h turned out to be 53 µM.

Turning to `Clc1nss/c1=N\c1cc(-c2ccccc2)nn1Cc1ccccc1`, the figures for the CC50 at 24 h in data set [1] and in data set [2] were 37 µM and 29 µM, respectively. For the same compound, the EC50 in data set [3] was determined as 31 µM. Moreover, the selectivity ratio in data set [4] came to 1.7. In addition, in data set [5], the CC50 at 168 h worked out at 53 µM.

In the case of `FC(F)(F)Oc1ccc(/N=c2\ssnc2Cl)cc1Br`, the CC50 at 24 h in data set [1] and in data set [2] was more than 100 µM in each case. Besides, the EC50 in data set [3] was more than 100 µM. In addition, in data set [5], the CC50 at 168 h was more than 100 µM.

In the case of `O=[N+]([O-])c1cccnc1/N=c1\ssnc1Cl`, the values for the CC50 at 24 h in data set [1] and in data set [2] were 21 µM and 6.1 µM, respectively. In addition, the EC50 in data set [3] is 2 µM. The selectivity ratio in data set [4] turned out to be 1.3. Further, the CC50 at 168 h in data set [5] turned out to be 2.6 µM.

As to `CCOc1cccnc1/N=c1\ssnc1Cl`, the results for the CC50 at 24 h in data set [1] and in data set [2] were 42 µM and 45 µM, respectively. Further, the EC50 in data set [3] amounted to 0.55 µM. The selectivity ratio in data set [4] was 90. Further, in data set [5], the CC50 at 168 h is 49 µM.

Turning to `Clc1nss/c1=N\c1ccc(I)cc1`, the CC50 at 24 h in data set [1] was determined as 73 µM; in data set [2], 44 µM. For the same compound, the EC50 in data set [3] came to 0.38 µM. In addition, the selectivity ratio in data set [4] stood at 129. Further, the CC50 at 168 h in data set [5] turned out to be 49 µM.

For the compound `COc1cccc(/N=c2\ssnc2Cl)n1`, the figures for the CC50 at 24 h in data set [1] and in data set [2] were 34 µM and 4.3 µM, respectively. Besides, in data set [3], the EC50 is 0.26 µM. In addition, in data set [4], the selectivity ratio is 178. In data set [5], the CC50 at 168 h came out at 47 µM.

With `COc1cccnc1/N=c1\ssnc1Cl`, the CC50 at 24 h in data set [1] and in data set [2] was 37 µM throughout. The EC50 in data set [3] was 2.9 µM. Also, the selectivity ratio in data set [4] amounted to 21. In addition, the CC50 at 168 h in data set [5] came to 61 µM.

For `FC(F)(F)Oc1ccc(/N=c2\ssnc2Cl)cc1Cl`, the CC50 at 24 h in data set [1] is 85 µM; in data set [2], more than 100 µM. Further, the EC50 in data set [3] was determined as 23 µM. In addition, the selectivity ratio in data set [4] was 1. For the same compound, the CC50 at 168 h in data set [5] turned out to be 23 µM.

Consider `N#Cc1cccnc1/N=c1\ssnc1Cl`, for which the CC50 at 24 h is 3.1 µM in data set [1] and 36 µM in data set [2]. The EC50 in data set [3] is 0.42 µM. The selectivity ratio in data set [4] worked out at 122. The CC50 at 168 h in data set [5] turned out to be 51 µM.

Turning to `Fc1ccc(F)c(/N=c2\ssnc2Cl)c1`, the CC50 at 24 h in data set [1] and in data set [2] was more than 100 µM each time. Moreover, the EC50 in data set [3] came to 0.68 µM. Moreover, the selectivity ratio in data set [4] was 131. In addition, the CC50 at 168 h in data set [5] came to 89 µM.

In the case of `Clc1ccccc1/N=c1\ssnc1Cl`, the CC50 at 24 h in data set [1] was more than 100 µM; in data set [2], 25 µM. The EC50 in data set [3] came out at 20 µM. In addition, the selectivity ratio in data set [4] was found to be 2.6. Moreover, the CC50 at 168 h in data set [5] came to 51 µM.

With `Clc1nss/c1=N\c1cccc(Br)n1`, the figures for the CC50 at 24 h in data set [1] and in data set [2] were 38 µM and 52 µM, respectively. The EC50 in data set [3] was 0.48 µM. The selectivity ratio in data set [4] was 92. The CC50 at 168 h in data set [5] was 44 µM.

For the compound `FC(F)(F)Oc1ccc(/N=c2\ssnc2Cl)cc1`, the CC50 at 24 h in data set [1] and in data set [2] was more than 100 µM in each case. Further, the EC50 in data set [3] is more than 100 µM. The CC50 at 168 h in data set [5] was more than 100 µM.
